Source: ChEMBL document CHEMBL4627246, “Pyroglutamide-Based P2X7 Receptor Antagonists Targeting Inflammatory Bowel Disease” (J Med Chem, 2020)

Tests used:
Type in all cases: cell-based
CCRF-CEM = assay: Cytotoxicity against human CCRF-CEM cells assessed as effect on cell growth at 10 uM incubated for 48 hrs by sulforhodamine B assay
SR = assay: Cytotoxicity against human SR cells assessed as effect on cell growth at 10 uM incubated for 48 hrs by sulforhodamine B assay
K562 = assay: Cytotoxicity against human K562 cells assessed as effect on cell growth at 10 uM incubated for 48 hrs by sulforhodamine B assay; conditions: k562, 48 h
HOP-62 = assay: Cytotoxicity against human HOP62 cells assessed as effect on cell growth at 10 uM incubated for 48 hrs by sulforhodamine B assay; conditions: hop-62, 48 h
COLO 205 = assay: Cytotoxicity against human COLO205 cells assessed as effect on cell growth at 10 uM incubated for 48 hrs by sulforhodamine B assay; conditions: colo 205, 48 h
HCC 2998 = assay: Cytotoxicity against human HCC2998 cells assessed as effect on cell growth at 10 uM incubated for 48 hrs by sulforhodamine B assay; conditions: hcc 2998, 48 h
SF-539 = assay: Cytotoxicity against human SF539 cells assessed as effect on cell growth at 10 uM incubated for 48 hrs by sulforhodamine B assay; conditions: sf-539, 48 h
MDA-MB-435 = assay: Cytotoxicity against human MDA-MB-435 cells assessed as effect on cell growth at 10 uM incubated for 48 hrs by sulforhodamine B assay; conditions: mda-mb-435, 48 h
SK-MEL-28 = assay: Cytotoxicity against human SK-MEL-28 cells assessed as effect on cell growth at 10 uM incubated for 48 hrs by sulforhodamine B assay; conditions: sk-mel-28, 48 h
UACC-257 = assay: Cytotoxicity against human UACC257 cells assessed as effect on cell growth at 10 uM incubated for 48 hrs by sulforhodamine B assay; conditions: uacc-257, 48 h
OVCAR-3 = assay: Cytotoxicity against human OVCAR3 cells assessed as effect on cell growth at 10 uM incubated for 48 hrs by sulforhodamine B assay; conditions: ovcar-3, 48 h
NCI/ADR-RES = assay: Cytotoxicity against human NCI/ADR-RES cells assessed as effect on cell growth at 10 uM incubated for 48 hrs by sulforhodamine B assay
A498 = assay: Cytotoxicity against human A498 cells assessed as effect on cell growth at 10 uM incubated for 48 hrs by sulforhodamine B assay; conditions: a498, 48 h
ACHN = assay: Cytotoxicity against human ACHN cells assessed as effect on cell growth at 10 uM incubated for 48 hrs by sulforhodamine B assay
CAKI-1 = assay: Growth inhibition of human Caki1 cells assessed as growth percentage at 10 uM incubated for 48 hrs by sulforhodamine B assay; conditions: caki-1, 48 h
RXF 393 = assay: Cytotoxicity against human RXF393 cells assessed as effect on cell growth at 10 uM incubated for 48 hrs by sulforhodamine B assay; conditions: rxf 393, 48 h
SN12C = assay: Cytotoxicity against human SN12C cells assessed as effect on cell growth at 10 uM incubated for 48 hrs by sulforhodamine B assay
TK-10 = assay: Cytotoxicity against human TK10 cells assessed as effect on cell growth at 10 uM incubated for 48 hrs by sulforhodamine B assay; conditions: tk-10, 48 h
UO-31 = assay: Cytotoxicity against human UO31 cells assessed as effect on cell growth at 10 uM incubated for 48 hrs by sulforhodamine B assay; conditions: uo-31, 48 h
Hs-578T = assay: Cytotoxicity against human Hs 578T cells assessed as effect on cell growth at 10 uM incubated for 48 hrs by sulforhodamine B assay

Measured: Activity

CN1C(=O)C(C)(C)C[C@H]1C(=O)NCc1cccc(C(F)(F)F)c1Cl
Non-Toxic: all assays above

O=C(NCCc1ccccc1)[C@@H]1CCC(=O)N1Cc1ccc(Cl)cc1Cl
Non-Toxic: all assays above

O=C1N[C@H](C(=O)NCc2ccc(Cl)cc2Cl)C/C1=C\N1CCOCC1
Non-Toxic: all assays above

O=C(NCc1ccc(Cl)cc1Cl)[C@@H]1CCC(=O)N1c1ccsc1
Non-Toxic: all assays above

O=C1CCCC(C(=O)NCc2ccc(Cl)cc2Cl)N1 (stereo not given)
Non-Toxic: all assays above

O=C(NCc1ccc(Cl)cc1Cl)[C@@H]1COC(=O)N1c1cccs1
Non-Toxic: all assays above

CN1CCN(/C=C2\C[C@@H](C(=O)NCc3ccc(Cl)cc3Cl)N(c3cccs3)C2=O)CC1
Non-Toxic: all assays above

COc1ccc(CN2C(=O)[C@@H]3C/C(=C\N(C)C)C(=O)N3C2N(C)C)c(OC)c1 (stereo not given in full)
Non-Toxic: all assays above

O=C(NCCc1ccccc1)[C@@H]1CCC(=O)N1Cc1ccc(Br)cc1
Non-Toxic: all assays above
